The record followed here is ChEMBL document CHEMBL3507680, “University of Dundee, Gates Library screen for HepG2 cell viability”.

The nature of this data set: Human HepG2 cell viability assay in 384 well format. Type of data set: toxicity, cell-based. More on the design: dose 125 nL, time 70.5 hour; cytotoxicity at 70.5 h: concentration not given beside the values. Conditions: HepG2 cells, read-out: Inhibition.
`c1cc2c(cc1-c1noc3c1CN(C1CCSC1)CC3)OCO2` (stereo not drawn): the cytotoxicity at 70.5 h is -12.7%. Next, `CN(C)c1ncc(-c2cc(C(=O)NC(C)(C)CO)n(CC3CC3)c2)cn1`: -12.5%; `CN(C)S(=O)(=O)N1CCC(OCCCc2ccccc2)C1` (stereo not drawn): -0.922%. Regarding `O=C(CCc1ccccc1F)N1CCCC(OCc2cccnc2)C1` (stereo not drawn), the cytotoxicity at 70.5 h was -9.56%. The figure for `OC1CCCOC12CCN(CCCOc1ccccc1F)CC2` (stereo not drawn) is -10.9%. Next, `CCn1cc2c(n1)C(COC)CN(Cc1ccccn1)C2` (stereo not drawn): 29.7%; `CC(NC(=O)Nc1ccc(F)c(F)c1)c1nc[nH]n1` (stereo not drawn): -2.38%; `CCc1nnc2n1CCN(C(=O)CN(CC)CC)C2`: 44.6%. `COc1ccc(CNC(=O)N(C)CC(C)(C)O)cc1OC`: the cytotoxicity at 70.5 h is -109%. Next, `CS(=O)(=O)NC(=O)c1cc(Cl)c2c(c1)OCCCO2`: 0.437%; `O=c1n(CCSCc2ccccc2Cl)nc2ccccn12`: -6.77%; `CCOc1ccc(N(C)Cc2nnc(C3CC3)o2)cc1`: -2.24%. For the compound `CN(C)C1COC2(CCN(Cc3ccncc3)CC2)C1` (stereo not drawn), the cytotoxicity at 70.5 h is -7.75%. The figure for `CC(C)(CNC(=O)C1CCCCN1S(C)(=O)=O)N1CCOCC1` (stereo not drawn) is 38%; for `O[C@H]1[C@H](NCCSc2ccccn2)c2ccccc2C12CCNCC2` it is 1.07%. The figure for `Cc1noc([C@@H](C)NCc2cccc(Cl)c2)c1C(=O)O` is 2.52%; for `CCNC(=O)C(C)(C)NC(=O)NCc1cccc(Br)c1` it is -8.53%. The figure for `Cc1cc(C)c(C(=O)N2CCc3c(ncn3CCc3ccccc3)C2)[nH]1` is -8.62%; for `Cc1csc(CNc2cnc3c(c2)c(C)nn3C)n1` it is 12.8%. `Cn1ncc2c(N[C@@H]3CS(=O)(=O)C[C@H]3O)nc(C(C)(C)C)nc21`: the cytotoxicity at 70.5 h is -9.52%. The figure for `CCOc1ccc(NC(C)=O)cc1S(=O)(=O)Nc1nccs1` is 22.7%; for `O=C(O)CCc1ccc(S(=O)(=O)Nc2cnn(CC3CC3)c2)cc1` it is 27.6%; for `CCc1nc(CN2CCCN(Cc3noc(C4CC4)n3)CC2)cs1` it is -0.776%. The figure for `Cc1nc(CNCC2CNc3ccnn3C2)cs1` (stereo not drawn) is -7.55%. In the case of `O=C(O)CN1CCc2onc(C(c3ccccc3)c3ccccc3)c2C1`, the cytotoxicity at 70.5 h was -3.48%.

For `O=C(Cn1nc(-c2ccc(F)cc2)oc1=O)NCc1ccncc1`, the cytotoxicity at 70.5 h is -12.1%. Turning to `Cc1noc(C)c1CN1CC[C@H]2OCC[C@@H](C(=O)NCC3CC3)[C@@H]2C1`, the cytotoxicity at 70.5 h was -3.12%. Next, `Cc1nonc1OCCNC(=O)CCCc1ccc(Cl)cc1`: -5.01%; `Cc1nc(C(C)(C)NC(=O)Nc2cccc(C#N)c2)no1`: -2.69%; `CC(C)[C@@H]1CN(C(=O)NCCc2ccccc2)C[C@H]1NS(=O)(=O)N(C)C`: 2.29%.

With `CCn1cc(NC(=O)NCC(C)N2CCCC2)cn1` (stereo not drawn), the cytotoxicity at 70.5 h turned out to be 22.1%. Turning to `CC(C)CC(=O)N1CC(=O)c2sc(Nc3ccc(F)cc3F)nc2C1`, the cytotoxicity at 70.5 h was 0.35%. The figure for `CC(C)CN1CC[C@@H]2[C@@H]1CCN2C(=O)N(C)C` is -11.8%; for `Cn1cc(C(=O)N2CCOc3cc(F)ccc32)ccc1=O` it is -7.98%.

Turning to `Cc1cc(CN(C)C(=O)CN2CC3(CCNCC3)OC2=O)n(C)n1`, the cytotoxicity at 70.5 h is -9.14%. Next, `Cc1nc(-c2cccc(C(=O)O)c2)cc(C2CCCN(C(C)C)C2)n1` (stereo not drawn): 13.2%; `OC(CN1CCCCCCC1)c1ccc(OC(F)(F)F)cc1` (stereo not drawn): 7.33%; `Cc1cc(NC(=O)Cn2ncc(Br)c2C)no1`: -2.58%. Consider `CC(=O)c1sc2nc3c(c(C(F)(F)F)c2c1N)CN(C(C)=O)CC3`, for which the cytotoxicity at 70.5 h was determined as 8.25%. The figure for `CC(C)(C)Cc1noc2ncc(C(=O)N3CCCSCC3)cc12` is 11.1%. For the compound `Cc1cccc(CN2CCCC[C@H]3CN(c4ncccn4)C[C@H]32)c1`, the cytotoxicity at 70.5 h stood at 5.5%. Next, `Cc1n[nH]c2c1C(c1ccsc1)SCC(=O)N2` (stereo not drawn): 8.67%.

Consider `CCCNC(=O)c1ccc2c(OC)n(C)nc2c1`, for which the cytotoxicity at 70.5 h came out at 0.507%. Next, `O=C(C1CCOCC1)N(CCc1ccccc1)C1CCOC1` (stereo not drawn): 8.62%.

`COCCCS(=O)(=O)N1CCN(Cc2cccn2C)CC1`: the cytotoxicity at 70.5 h was 43.4%.

For `CC(CCSc1ccccc1)N1CCN(C(=O)c2cccs2)CC1` (stereo not drawn), the cytotoxicity at 70.5 h was 35.4%.

Regarding `O=C(NCCn1ccnc1)c1cc(F)cc(Br)c1`, the cytotoxicity at 70.5 h was -8.01%. Next, `CN(Cc1cc[nH]n1)C(C(=O)O)c1ccc(Cl)cc1` (stereo not drawn): -4.85%; `O=C(Cc1ccccn1)N1CCN(C(=O)CC2CCCC2)CC1`: -1.56%. Next, `O=C(c1ncc[nH]1)N1CCC(n2cc(-c3cccc(Cl)c3)nn2)CC1`: 8.61%.

On to `CCc1nc2ccccc2n1C(CC)C(=O)N(C)CCc1noc(C)n1` (stereo not drawn), for which the cytotoxicity at 70.5 h was -20.6%. Regarding `Cc1cc(C(=O)N2CCn3cc(CN4CCOCC4)nc3C2)no1`, the cytotoxicity at 70.5 h was -7.09%.

Turning to `COc1ccc2c(c1)CCN(CCC(=O)O)CC2`, the cytotoxicity at 70.5 h is 12.3%. Next, `Cc1nc(CN2CCCN(CC(=O)Nc3ccncc3)CC2)no1`: 5.91%; `Cc1ccc(-c2nnc(CNCCn3cccn3)o2)cc1`: 13.9%; `CC(C)=CCN1CCN(CCCOc2ccccc2)[C@H]2CS(=O)(=O)C[C@H]21`: -4.88%. Next, `CN1C(=O)Cc2cc(-c3csc(CCN4CCOC4=O)n3)ccc21`: 6.81%; `CC(O)c1cn(C2CCN(C(=O)C3(C)CCN(C)CC3)CC2)nn1` (stereo not drawn): -10.9%; `CNS(=O)(=O)c1ccc(C(=O)NC2CCc3nc(C)cn3C2)o1` (stereo not drawn): -6.79%.

As for `Cc1cc(C)nc(-n2nc(C)c3c2NC(=O)CSC3c2cnn(C)c2)n1` (stereo not drawn), the cytotoxicity at 70.5 h was -31.4%. The figure for `CSc1ccc(NCC(=O)NCC(=O)N2CCCC2)cc1F` is -2.3%; for `COc1cc(N2CCC3(CCN(Cc4csc(C)n4)C3=O)C2)ncn1` (stereo not drawn) it is -7.86%. Consider `Cn1nc(-c2cccs2)cc1[C@H]1CN2CC[C@H]1C[C@@H]2CNS(C)(=O)=O`, for which the cytotoxicity at 70.5 h was -6.43%.

In the case of `CC(C)c1nccn1C1CCCN(C(=O)c2cc(C(N)=O)cs2)C1` (stereo not drawn), the cytotoxicity at 70.5 h turned out to be 2.06%.

Turning to `COc1cc(F)ccc1C(C(=O)O)N1CCN(C2CCCCC2)CC1` (stereo not drawn), the cytotoxicity at 70.5 h is -4.9%. The figure for `Cc1nc(N2CCCC2)ncc1-c1cc(O)nc(NCC2CCCO2)n1` (stereo not drawn) is -5.1%; for `CC(C)CC(=O)Nc1ccc(Oc2ccsc2C(=O)O)cc1` it is 1.56%; for `Cc1nnc(NCc2cccc(OCc3ccccn3)c2)c(C#N)c1C` it is -4.44%.

As to `O=C(c1cnc(-c2ccccc2)s1)N1CCOC2(CCCC2)C1`, the cytotoxicity at 70.5 h is -3.97%.

As to `CN(C)C(=O)CC1CC2(CCN(CC3CC3)CC2)c2cc(F)ccc21` (stereo not drawn), the cytotoxicity at 70.5 h was determined as 35.7%. Next, `CC(C)c1nccn1C1CCCN(C(=O)CCc2cnn(C)c2)C1` (stereo not drawn): -10.7%; `CC(=O)N1CCCN(C(=O)NC(C)c2csc3ccccc23)CC1` (stereo not drawn): -6.35%; `O=C(NCc1ccc(F)cc1)C1CCCN(c2ccc3nncn3n2)C1` (stereo not drawn): 22%. The figure for `Cc1noc(C)c1CN1CCCC2(C1)CN(Cc1nccn1C)CCO2` (stereo not drawn) is -8.03%. For `Cc1cnc(C(=O)N2C[C@H]3CC[C@@H]2CN(c2cnccn2)C3)cn1`, the cytotoxicity at 70.5 h is -2.4%. Next, `CCC(=O)N1CCC(c2nnc(Cn3cncn3)n2C2CC2)CC1`: 6.31%. Next, `c1ccc2nc(CN3CCCC3c3noc(C4CC4)n3)ccc2c1` (stereo not drawn): 21.2%; `Cc1nc(N2CCCCC2)ncc1-c1cc(=O)[nH]c(N2CCCC2)n1`: 2.6%. The figure for `Cc1ccc(C(=O)NS(=O)(=O)Cc2ccccc2)cc1S(C)(=O)=O` is -2.97%; for `CC(C)C(=O)N1CCN(S(=O)(=O)C2CC2)CC2(CC(=O)N(C)C2)C1` (stereo not drawn) it is -6.71%. As for `CCS(=O)(=O)N1CCC2(CN(C(=O)c3cscn3)C2)C1`, the cytotoxicity at 70.5 h is -3.48%. Next, `O=C1CO[C@@H]2CN(CC3CC3)C[C@H]2N1Cc1cccc(F)c1`: 14.4%. Next, `O=C(c1ccncc1)N1CCCC(c2ncncc2-c2ccncc2)C1` (stereo not drawn): -4.43%. With `CC(C)n1c2ccccc2c2c1cc(C(=O)NCCO)n2C(=O)N(C)C`, the cytotoxicity at 70.5 h is -4.08%. On to `O=C(NCCN1CCOCC1)Nc1cc(F)ccc1-n1cccn1`, for which the cytotoxicity at 70.5 h is -0.85%.

With `Cc1nn(-c2ccc(C(=O)O)cc2)c2c1C(c1ccsc1)SCC(=O)N2` (stereo not drawn), the cytotoxicity at 70.5 h is -1.43%. Next, `O=C(NCCN1CCCC1)c1ccc2c(-c3nccs3)noc2c1`: -6.42%.

In the case of `O=C(Cn1cccn1)Nc1ccc(N2CCOCC2)cc1`, the cytotoxicity at 70.5 h came out at 0.51%. As to `CC(=O)N1CC2(CCNCC2)c2cc(C)ccc21`, the cytotoxicity at 70.5 h was found to be 20.4%. As for `CO[C@H]1C[C@@H]2CN(C(=O)c3n[nH]c4c3CCCC4)C[C@@H]2C1`, the cytotoxicity at 70.5 h came to 11%. Consider `O=C(Nc1c(F)cccc1Oc1ccccc1)C1CCS(=O)(=O)C1` (stereo not drawn), for which the cytotoxicity at 70.5 h was -1.02%. The figure for `Cc1nc(C2CCCN(C(=O)c3ccc(Cl)cn3)C2)no1` (stereo not drawn) is -5.54%; for `O=c1cc(-c2cc(O)cc(CCC3CCCCN3)c2)cc[nH]1` (stereo not drawn) it is -6.48%. Consider `COCCn1cnc(-c2cc(C(=O)NC(C)C)c3ccccn23)c1`, for which the cytotoxicity at 70.5 h is -6.05%. As for `CS(=O)(=O)NC1CCc2c(ccc(=O)n2CC2CC2)C1` (stereo not drawn), the cytotoxicity at 70.5 h is -15.1%. The figure for `COc1cccc2cc(CNC(=O)N3CCC(C(N)=O)CC3)oc12` is -8.48%; for `Cc1cc(C)nc(NCCSc2cnn[nH]2)n1` it is -2%.

For `CCSC1(CNc2ncc(Br)cn2)CCOCC1`, the cytotoxicity at 70.5 h was -5.62%.
